*1 amine or outer side, *2 acyl side, *3 side chain or, on linkers, in order; H or OH if unused. Where a SMILES comes first, the peptide text is derived from it. Bridges are numbered along the chain shown (N, C = ends). [ ]: non-standard residue; d: D form. hPhe(3-Cl-4-CF3) = N[C@@H](CCc1ccc(C(F)(F)F)c(Cl)c1)C(=O)O; NPrPhe(4-CF3) = CCCN[C@@H](Cc1ccc(C(F)(F)F)cc1)C(=O)O; NEtAsp = CCN([C@@H](CC(=O)[*:3])C(=O)[*:2])[*:1]; NMeGly(cPent) = CN[C@H](C(=O)O)C1CCCC1; NMeL = CN[C@@H](CC(C)C)C(=O)O; NMeA = CN[C@@H](C)C(=O)O; Aze = O=C(O)[C@@H]1CCN1; Ac4c = NC1(C(=O)O)CCC1; Sar = CNCC(=O)O
Assays:
[1] = molecular target: GDP-bound NRAS wild-type protein (Homo sapiens, UniProt P01111); assay: Binding to NRAS by surface plasmon resonance (SPR), Single Cycle Kinetics; details: for NRAS/KRAS (ratio of KD value for NRAS to KD value for KRAS) / NRAS/KRAS (ratio of KD value with respect to NRAS to KD value with respect to KRAS): GDP-bound NRAS wild-type vs GDP-bound KRAS wild-type, SPR
Sequence of GDP-bound NRAS wild-type protein (P01111 whole entry): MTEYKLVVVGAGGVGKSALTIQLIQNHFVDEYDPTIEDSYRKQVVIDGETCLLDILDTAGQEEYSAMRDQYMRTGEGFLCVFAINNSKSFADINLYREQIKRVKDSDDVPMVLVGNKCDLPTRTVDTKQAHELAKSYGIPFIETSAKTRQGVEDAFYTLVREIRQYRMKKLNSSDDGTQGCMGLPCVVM

[2] = molecular target: GDP-bound HRAS wild-type protein (Homo sapiens, UniProt P01112); assay: Binding to HRAS by surface plasmon resonance (SPR), Single Cycle Kinetics; details: for HRAS/KRAS (ratio of KD value for HRAS to KD value for KRAS) / HRAS/KRAS (ratio of KD value with respect to HRAS to KD value with respect to KRAS): GDP-bound HRAS wild-type vs GDP-bound KRAS wild-type, SPR
Sequence of GDP-bound HRAS wild-type protein (P01112 whole entry): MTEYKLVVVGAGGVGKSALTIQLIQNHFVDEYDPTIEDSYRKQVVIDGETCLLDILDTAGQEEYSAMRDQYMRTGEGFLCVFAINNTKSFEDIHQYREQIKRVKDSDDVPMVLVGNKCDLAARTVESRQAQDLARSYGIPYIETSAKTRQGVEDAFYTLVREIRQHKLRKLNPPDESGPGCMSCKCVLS

Row | SMILES | NRAS/KRAS (ratio of KD value with respect to NRAS to KD value with respect to KRAS) [1] | HRAS/KRAS (ratio of KD value with respect to HRAS to KD value with respect to KRAS) [2] | further results
1 | CCCN1C(=O)[C@@H]2CCN2C(=O)[C@H](C)N(C)C(=O)[C@H]([C@@H](C)CC)NC(=O)[C@H](CC(C)C)N(C)C(=O)C[C@@H](C(=O)N(C)C)N(CC)C(=O)[C@H](C2CCCC2)N(C)C(=O)C2(CCC2)NC(=O)[C@@H]2CCCN2C(=O)[C@H](CCc2ccc(C(F)(F)F)c(Cl)c2)NC(=O)CN(C)C(=O)[C@@H]1Cc1ccc(C(F)(F)F)cc1 [PP1957] ([NMeL]I[NMeA][Aze][NPrPhe(4-CF3)][Sar][hPhe(3-Cl-4-CF3)]P[Ac4c][NMeGly(cPent)][NEtAsp]-NMe2; lactam N-11) |  |  | NRAS/KRAS (ratio of KD value for NRAS to KD value for KRAS) [1]: C (A compound having a KD ratio of 0.1 or more and less than 3 is denoted as C); HRAS/KRAS (ratio of KD value for HRAS to KD value for KRAS) [2]: B (a compound having 3 or more and less than 10 is denoted as B)
2 | CCO[C@@H]1C[C@H]2C(=O)NC3(CC(C)(C)C3)C(=O)N(C)[C@@H](C3CCCC3)C(=O)N(C)[C@H](C(=O)N3CCOCC3)CC(=O)N(C)[C@@H](COC)C(=O)N[C@@H]([C@@H](C)CC)C(=O)N(C)CC(=O)N(C)[C@H]3CCCCCN(C3=O)[C@@H](Cc3ccc(C(F)(F)F)cc3)C(=O)N(C)CC(=O)N[C@@H](CCc3cc(F)c(C(F)(F)F)c(F)c3)C(=O)N2C1 [PP0844] | B (a compound having 3 or more and less than 10 is denoted as B) | B (a compound having 3 or more and less than 10 is denoted as B) | 
3 | CCO[C@@H]1C[C@H]2C(=O)NC3(CCC3)C(=O)N(C)[C@@H](C3CCCC3)C(=O)N(C)[C@H](C(=O)N3CCOCC3)CC(=O)N(C)[C@@H](CC(C)C)C(=O)N[C@@H]([C@@H](C)CC)C(=O)N(C)CC(=O)N(C)[C@H]3CCCCCN(C3=O)[C@@H](Cc3ccc4ccsc4c3)C(=O)N(C)CC(=O)N[C@@H](CCc3cc(F)c(C(F)(F)F)c(F)c3)C(=O)N2C1 [PP0921] | B (a compound having 3 or more and less than 10 is denoted as B) | B (a compound having 3 or more and less than 10 is denoted as B) | 
4 | CCO[C@@H]1C[C@H]2C(=O)NC3(CCC3)C(=O)N(C)[C@@H](C3CCCC3)C(=O)N(C)[C@H](C(=O)N(C)C)CC(=O)N(C)[C@@H](CC)C(=O)N[C@@H]([C@@H](C)CC)C(=O)N(C)CC(=O)N(C)[C@H]3CC(C)=C(C)CN(C3=O)[C@@H](Cc3ccc(C(F)(F)F)cc3)C(=O)N(C)CC(=O)N[C@@H](CCc3cc(F)c(C(F)(F)F)c(F)c3)C(=O)N2C1 [PP1048] | C (A compound having a KD ratio of 0.1 or more and less than 3 is denoted as C) | C (A compound having a KD ratio of 0.1 or more and less than 3 is denoted as C) | 
5 | CCO[C@@H]1C[C@H]2C(=O)NC3(CC(C)(C)C3)C(=O)N(C)[C@@H](C3CCCC3)C(=O)N(C)[C@H](C(=O)N(C)CC)CC(=O)N(C)[C@@H](COC)C(=O)N[C@@H]([C@@H](C)CC)C(=O)N(C)CC(=O)N(C)[C@H]3C/C=C\CCN(C3=O)[C@@H](Cc3ccc(C(F)(F)F)cc3)C(=O)N(C)CC(=O)N[C@@H](CCc3ccc(C(F)(F)F)c(Cl)c3)C(=O)N2C1 [PP2836] |  |  | NRAS/KRAS (ratio of KD value with respect to GDP-bound NRAS wild-type protein to KD value with respect to KRAS) ([1]; KD ratio NRAS/KRAS, class symbols): A (a compound having 10 or more and less than 20 is denoted as A); HRAS/KRAS (ratio of KD value with respect to GDP-bound HRAS wild-type protein to KD value with respect to KRAS) ([2]; KD ratio HRAS/KRAS, class symbols): A (a compound having 10 or more and less than 20 is denoted as A)
6 | CC[C@H](C)[C@@H]1NC(=O)[C@H](CC(C)C)N(C)C(=O)C[C@@H](C(=O)N2CCOCC2)N(C)C(=O)[C@H](C2CCCC2)N(C)C(=O)C2(CCC2)NC(=O)[C@@H]2C[C@@H](OCC3CC3)CN2C(=O)[C@H](CCc2cc(F)c(C(F)(F)F)c(F)c2)NC(=O)CN(C)C(=O)[C@H](Cc2ccc(C(F)(F)F)cc2)N2CCCC[C@@H](C2=O)N(C)C(=O)CN(C)C1=O [PP1000] | B (a compound having 3 or more and less than 10 is denoted as B) | B (a compound having 3 or more and less than 10 is denoted as B) | 
7 | CC[C@H](C)[C@@H]1NC(=O)[C@H](CC(C)C)N(C)C(=O)C[C@@H](C(=O)N(CC)CC)N(C)C(=O)[C@H](C2CCCC2)N(C)C(=O)C2(CCC2)NC(=O)[C@@H]2C[C@H](C)CN2C(=O)[C@H](CCc2ccc(C(F)(F)F)c(OC)c2)NC(=O)CN(C)C(=O)[C@H](Cc2ccc(C)cc2)N2CC/C=C\C[C@@H](C2=O)N(C)C(=O)CN(C)C1=O [PP1885] |  |  | NRAS/KRAS (ratio of KD value for NRAS to KD value for KRAS) [1]: AA (a compound having 20 or more is denoted as AA); HRAS/KRAS (ratio of KD value for HRAS to KD value for KRAS) [2]: A (a compound having 10 or more and less than 20 is denoted as A)
